Test results published in patent US7385103B2, “Animal model, cells, and treatment for malignant melanoma” (Rutgers, the State University, priority 2004, dated 2008).

Experiments:
[1] = tested on: Grm1-mediated ERK1/2 activation; test: ERK1/2 phosphorylation in melanoma cells, western blot with phospho-ERK1/2 antibodies; assay type: cell-based, mouse; details: for phosphorylation of ERK1/2: 10^−5 M
Description: To examine whether ERK1/2 were activated after Grm1 activation, cells were treated for the indicated times with the agonist Quisqualate. After treatment, melanoma cells were lysed and the activation of ERK1/2 was determined using antibodies against the phosphorylated forms of ERK1/2.
Melanoma cells lines were transiently transfected with dominant-negative mutants of Grm1 and expression of the Grm1 mutants was analyzed by western blot analysis.
Upon IP3 accumulation in cells, calcium is released from the endoplasmic reticulum to the cytoplasm, allowing these ions to act as second messengers that bind to calmodulin and further activate calcium-calmodulin-dependent kinases that are capable of activating mitogen-activated protein kinases (MAPKS) (Soderling (1999) Trends Biochem. Sci. 24(6):232-6). Accordingly, it was determined whether IP3 accumulation in the tumor cell lines disclosed herein, upon Grm1 agonist treatment, would yield intracellular calcium signaling that could affect ERK activation. Depletion of intracellular calcium in these cells was obtained by chelating extracellular calcium with EGTA, which obligates calcium to exit the cell in order to maintain calcium homeostasis.
PIP2 hydrolysis resulting from Grm1 activation leads to the production of IP3 and DAG. DAG can then activate protein kinase C (PKC). […] Thus, it was determined whether the activation of ERK1/2 by Grm1 is also mediated by PKC in the tumor cell lines disclosed herein.
To have a minimum amount of the natural ligand (glutamate) present in the growth medium, customized glutamine- and glutamate-free RPMI (RPMI-glu) was used (INVITROGEN™, Carlsbad, Calif.). GLUTAMAX™ (INVITROGEN™), a substitute for glutamate and glutamine, was added to the growth medium at a final concentration of 2 mM, and 10% dialyzed fetal calf serum (INVITROGEN™) was used to supplement the medium. For induction with Grm1 agonist, quisqualate, the cells were grown in RPMI-glu for 3-4 days, plated at 3×10^5 cells per 60-mm plate and serum starved overnight. Several concentrations of quisqualate (10^−4 M to 10^−6 M) and several time points (30 seconds to 120 minutes) were tested for optimal induction. For Grm1 antagonist effects, cells were pretreated for 30 minutes with 10^−5 M of LY367385 before agonist treatment. For PKC inhibitor (RO-31-8220) and calcium chelators (EGTA, BAPTA-AM), cells were pretreated for indicated times before agonist challenge.
Proteins were extracted using lysis buffer (50 mM Tris-HCl, 150 mM NaCl, 1 mM EDTA, 1% NP-40, 5% glycerol, and 1 mM dithiothreitol, pH 7.4) and protease inhibitors (Complete protease inhibitor cocktail tablets, Roche Molecular Biochemicals, Indianapolis, Ind.). Protein concentrations were measured using the BIO-RAD® DC Protein Assay kit (Bio-Rad, Hercules, Calif.). Equal amounts of lysates were loaded in each lane in 7.5 or 10% polyacrylamide gels (BIO-RAD®, Hercules, Calif.). Proteins were transferred to nitrocellulose membranes (Osmonics, Minnetonka, Minn.). Ponceau Red staining of membranes, after transfer, was performed to verify equivalent amounts of protein between samples. Anti-PERK, ERK, PhosphoPKC isoforms, PKC isoforms antibodies were obtained from Cell Signaling Technology, Inc. (Beverly, Mass.).

[2] = tested on: melanoma cell lines; test: establishment of melanoma cell lines from amelanotic ear tumors in culture; assay type: cell-based, mouse
Description: To further analyze the signaling events mediated by Grm1 in transformed melanocytes, cell lines derived from ear tumor bearing albino mice (Cohen-Salal, et al. (2001) supra) were generated. Tumors from these mice were sectioned in two halves. Protein extraction was performed on one part of the tumors and western immunoblots were done to verify the ectopic expression of Grm1. The other half of the tumor was used to generate homogeneous in vitro melanoma cell lines by gentle selection of melanocyte cells over keratinocytes and fibroblasts through differential geneticin resistance. Initial efforts to directly establish cell lines on standard culture medium supplemented with geneticin were unsuccessful. […] Based on morphology and growth rate, 10^−5 M quisqualate was sufficient to establish growth in culture. […] Ten cells lines namely LL1A, LL1T, Nu1, Nu2, MMB3A, MMB3T, 4045A, 4045T, 4046T, 4046A, were successfully generated from at least six independent mice tumors. Given that these mouse melanoma cell lines behave very similarly in culture, data presented herein is of representative cell lines. […] Cytoplasmic staining for Grm1 has also been reported in other cellular systems (Tadokoro, et al. (1999) Proc. Natl. Acad. Sci. USA 96:13801-13806). To verify the melanocytic origin of these cells, co-staining of the cells was performed with Tyrp-1. […]

Question: For `CC(=O)OCOC(=O)CN(CC(=O)OCOC(C)=O)c1ccccc1OCCOc1ccccc1N(CC(=O)OCOC(C)=O)CC(=O)OCOC(C)=O` [BAPTA-AM], which “ERK activation by quisqualate” value ([1]; preincubation 30 minutes prior to agonist challenge, in calcium-free media) is on record?
Answer: The value was “completely abolished”.

Question: What about the “ERK activation by quisqualate” value ([1]; preincubation 30 minutes prior to agonist challenge, in the presence of extracellular calcium) of the same molecule?
Answer: The value was “dose-dependent decrease in ERK activation”.

Question: `O=C(O)CN(CCOCCOCCN(CC(=O)O)CC(=O)O)CC(=O)O` [EGTA] was tested. Which “ERK activation by quisqualate” value ([1]; chelating extracellular calcium to deplete intracellular calcium) did it give?
Answer: The value was “time-dependent decrease in ERK activation”.

Question: For `Cc1cc(C(=O)O)ccc1[C@H](N)C(=O)O` [LY367385], which “activation of ERK1/2 by quisqualate” value ([1]; melanoma lines pretreated 30 minutes with antagonist (10^−5 M) before agonist challenge) is on record?
Answer: The value was “abrogated”.

Question: With `N[C@@H](Cn1oc(=O)[nH]c1=O)C(=O)O` [quisqualate, L-quisqualate] as the molecule, how does the “quisqualate concentration sufficient to establish growth in culture” value ([2]; based on morphology and growth rate) read?
Answer: Its value is 10^−5 M.

Question: And the “establishment of melanoma cell lines on addition to culture medium” value ([2]; culture medium supplemented with geneticin)?
Answer: Its value is “enabled the establishment of melanoma cell lines”.

Question: What about the “phosphorylation of ERK1/2” value ([1]; after 5 minutes of tumor cell stimulation) of the same molecule?
Answer: The value was “increase in the phosphorylation of ERK1/2”.

Question: What about the “phosphorylation of ERK1/2” value ([1]; after 15 minutes of stimulation) of the same molecule?
Answer: Its value is “reduced to background levels”.

B1: siRNA: siRNA specific for Grm1 nucleic acid, templates SEQ ID NO:3 (top strand) and SEQ ID NO:4 (bottom strand) (nucleic acid)
sense: GATCCCGTGGACGGAGATGTCATCATTTCAAGAGAATGATGACATCTCCGTCCATTTTTTGGAAA
antisense: GCTTTTCCAAAAAATGGACGGAGATGTCATCATTCTCTTGAAATGATGACATCTCCGTCCACGG
modifications: expressed or natural sequence; the letters are possibly those of the target site
Question: With B1 as the molecule, how does the “ERK activation by Grm1 agonist” value ([1]; transfected melanoma cells, compared to cells transfected with an unrelated siRNA sequence) read?
Answer: Its value is “inhibited ERK activation”.
